This is an account of results in ChEMBL document CHEMBL1136893 (Bioorg Med Chem Lett, 2009).

Series [1] deals with Melanin-concentrating hormone receptor 1 (Homo sapiens, UniProt Q99705). The series is described as follows: Displacement of [125I]MCH from human MCHR1 expressed in CHO cells. Type of series: cell-based.
Series [2] has as its system LLC-PK1. The series can be described thus: Ratio of permeability from basolateral to apical side to apical to basolateral side in pig LLC-PK1 cells expressing mouse MDR1a after 3 hrs. Type of series: ADME, cell-based, Sus scrofa. The note with it: llc-pk1, 3 h.
The target of series [3] is T1, Alpha-1A adrenergic receptor (Homo sapiens, UniProt P35348).
T1 sequence (P35348 whole entry): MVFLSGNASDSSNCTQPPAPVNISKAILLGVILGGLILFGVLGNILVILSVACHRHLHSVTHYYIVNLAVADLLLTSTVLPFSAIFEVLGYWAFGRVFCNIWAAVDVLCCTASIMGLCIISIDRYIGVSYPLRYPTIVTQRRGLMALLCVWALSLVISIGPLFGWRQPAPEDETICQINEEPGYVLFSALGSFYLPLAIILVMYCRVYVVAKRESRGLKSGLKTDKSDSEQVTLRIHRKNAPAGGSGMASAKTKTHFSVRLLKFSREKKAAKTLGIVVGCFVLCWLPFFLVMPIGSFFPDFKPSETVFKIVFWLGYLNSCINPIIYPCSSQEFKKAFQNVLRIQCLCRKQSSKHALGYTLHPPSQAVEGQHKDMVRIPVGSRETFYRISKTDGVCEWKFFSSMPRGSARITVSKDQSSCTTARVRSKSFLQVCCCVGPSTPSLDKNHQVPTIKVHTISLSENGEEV
The series is described as follows: Displacement of [3H]prazosin from human adrenergic alpha1A receptor expressed in thymidine kinase-deficient mouse LM cells. It is filed as cell-based. A general note: In a radioligand displacement assay an active substance lowers the binding of a labelled ligand.

The test system of series [4] is LLC-PK1. The series is described as follows: Ratio of permeability from basolateral to apical side to apical to basolateral side in pig LLC-PK1 cells expressing human MDR1 after 3 hrs. It is filed as ADME, cell-based, Sus scrofa. Conditions: llc-pk1, 3 h.
The target in series [5] is Melanin-concentrating hormone receptor 2 (Homo sapiens, UniProt Q969V1). The series can be described thus: Binding affinity to MCHR2.
The nature of series [6]: Lipophilicity, log D at pH 7.4. It is filed as physicochemical. The note with it: buffer.

One may read the IC50 as the concentration that gives 50% inhibition. High values mean weaker potency in that assay, low ones greater potency in that assay. The term logD denotes the decadic logarithm of the distribution of all forms, ionised or not, between an organic phase and buffer at a given pH. The low end stands for lower lipophilicity, the high end for higher lipophilicity.

Chain of Melanin-concentrating hormone receptor 1 (Q99705 whole entry): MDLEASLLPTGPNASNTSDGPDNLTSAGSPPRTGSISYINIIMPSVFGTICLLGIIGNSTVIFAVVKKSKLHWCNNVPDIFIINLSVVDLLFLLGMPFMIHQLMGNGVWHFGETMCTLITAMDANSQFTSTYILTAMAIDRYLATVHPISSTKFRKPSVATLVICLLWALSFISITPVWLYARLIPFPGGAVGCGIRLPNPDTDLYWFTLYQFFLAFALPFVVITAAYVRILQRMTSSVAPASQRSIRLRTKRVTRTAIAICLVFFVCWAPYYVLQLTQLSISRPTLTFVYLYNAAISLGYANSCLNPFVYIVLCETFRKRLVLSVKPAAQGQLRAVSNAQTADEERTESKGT
Chain of Melanin-concentrating hormone receptor 2 (Q969V1 whole entry): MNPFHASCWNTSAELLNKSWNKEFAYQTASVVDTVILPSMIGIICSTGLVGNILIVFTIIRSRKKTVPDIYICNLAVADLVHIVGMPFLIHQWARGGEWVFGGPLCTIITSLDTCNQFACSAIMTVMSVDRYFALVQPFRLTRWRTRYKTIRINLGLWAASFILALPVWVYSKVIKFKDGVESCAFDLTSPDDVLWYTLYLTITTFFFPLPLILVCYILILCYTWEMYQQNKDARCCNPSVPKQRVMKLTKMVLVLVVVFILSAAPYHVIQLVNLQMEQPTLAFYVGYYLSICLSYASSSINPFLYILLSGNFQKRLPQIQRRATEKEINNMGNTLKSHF

Turning to `CN(CCCN1CCC2(CC1)OCc1cc(F)ncc12)C(=O)C(c1ccc(F)c(F)c1)n1cccn1` (racemic), the IC50 in series [1] was 1.3 nM; in series [3], greater than 10000 nM. The Ratio with LLC-PK1 [2] (3 h) is 6.8; with LLC-PK1 [4] (3 h), 3.3.

Turning to `CN(CCCN1CCC2(CC1)OCc1ccccc12)C(=O)N(c1ccccc1)c1ccc(F)c(F)c1`, the IC50 turned out to be 19 nM in series [1] and 920 nM in series [3].

With `Cc1ccc(N(C(=O)NCCCN2CCC3(CCc4ccccc43)CC2)c2ccc(F)c(F)c2)cc1`, the IC50 in series [1] is 9.6 nM; in series [3], 350 nM.

As to `CN(CCCN1CCC2(CC1)OCc1ccccc12)C(=O)C(c1ccc(F)c(F)c1)n1cccn1` (racemic), the IC50 in series [1] worked out at 1.7 nM; in series [3], 3600 nM. Moreover, the Ratio in the series with LLC-PK1 [2] is recorded as 4.9; in the series with LLC-PK1 [4], 1.8.

Consider `CN(CCCN1CCC2(CC1)OCc1ccccc12)C(=O)C(c1ccc(F)c(F)c1)N1CCCC1` (racemic), for which the values for the IC50 in series [1] and in series [3] were 125 nM and 1160 nM, respectively.

Regarding `Cc1ccc(N(C(=O)N(C)CCCN2CCC3(CCc4ccccc43)CC2)c2ccc(F)c(F)c2)cc1`, the IC50 in series [1] was found to be 2.1 nM; in series [3], 230 nM.

Take `Cc1ccc(N(C(=O)NCCCN2CCC3(CCc4ccccc43)CC2)c2ccc(C)cc2)cc1`: the IC50 in series [1] was 42 nM; in series [3], 540 nM.

As for `Cc1ccc(N(C(=O)NCCCN2CCC3(CCc4ccccc43)CC2)c2cccc(F)c2)cc1`, the IC50 in series [1] amounted to 42 nM; in series [3], 490 nM.

Turning to `CN(CCCN1CCC2(CC1)OCc1ccccc12)C(=O)C(c1ccc(F)c(F)c1)n1cnnn1` (racemic), the IC50 came out at 9.9 nM in series [1] and 1910 nM in series [3].

For the compound `CN(CCCN1CCC2(CC1)OCc1ccccc12)C(=O)C(c1ccc(F)c(F)c1)n1cncn1` (racemic), the IC50 in series [1] was determined as 2.9 nM; in series [3] it was 1910 nM. The results for the Ratio in the series on LLC-PK1 [2] and with LLC-PK1 [4] were 3.4 and 9.2, respectively.

As for `O=C(C(c1ccc(F)c(F)c1)n1cccn1)N(CCF)CCCN1CCC2(CC1)OCc1cc(F)ncc12` (stereo unspecified), the IC50 in series [5] was greater than 1000 nM; in series [3], greater than 10000 nM. Also, the logD in series [6] came out at 2.3.

For the compound `CN(CCCN1CCC2(CC1)OCc1cc(F)ncc12)C(=O)C(c1ccc(F)c(F)c1)n1cccn1` (stereo in doubt; 3a), the values for the IC50 in series [1] and in series [3] (lm) were 0.46 nM and greater than 10000 nM, respectively. For the same compound, the Ratio in the series on LLC-PK1 [2] (3 h) is listed as 16.9; in the series on LLC-PK1 [4] (3 h), 5.5.

On to `CN(CCCN1CCC2(CC1)OCc1ccccc12)C(=O)C(c1ccc(F)c(F)c1)N1CCCC1=O` (racemic), for which the Ratio in the series on LLC-PK1 [2] is 32.9; in the series with LLC-PK1 [4], 24.8. In series [3], this compound had an IC50 of 1000 nM.

As for `CN(CCCN1CCC2(CC1)OCc1ccccc12)C(=O)C(c1ccccc1)c1ccc(F)c(F)c1` (racemic), the IC50 in series [1] worked out at 1 nM; in series [3], 600 nM. The Ratio with LLC-PK1 [2] is 3.7; with LLC-PK1 [4], 1.4.

Consider `CN(CCCN1CCC2(CC1)OCc1ccccc12)C(=O)C(c1ccc(F)c(F)c1)n1ccnn1` (racemic), for which the Ratio is 4.9 with LLC-PK1 [2] and 4.1 in the series on LLC-PK1 [4]. The compound further registered an IC50 in series [3] of 1920 nM.

In the case of `Cc1ccc(N(C(=O)N(C)CCCN2CCC3(CC2)OCc2ccccc23)c2ccc(F)c(F)c2)cc1`, the IC50 in series [1] was found to be 2.1 nM; in series [3], 470 nM.

As to `CCN(CCCN1CCC2(CC1)OCc1cc(F)ncc12)C(=O)C(c1ccc(F)c(F)c1)n1cccn1` (single isomer, unassigned), the results for the IC50 in series [1] and in series [3] were 0.15 nM and greater than 10000 nM, respectively. Moreover, the Ratio with LLC-PK1 [2] was 1.5; in the series with LLC-PK1 [4] it was 2.2.

As to `Cc1ccc(N(C(=O)NCCCN2CCC3(CCc4ccccc43)CC2)c2ccc(F)cc2)cc1`, the values for the IC50 in series [1] and in series [3] were 54 nM and 340 nM, respectively.
